From patent US20140171316A1, “ANTHRANILAMIDE COMPOUNDS AND THEIR USE AS PESTICIDES” (BASF SE, priority 2011, published 2014)

How the values were obtained:
Type in all cases: in vivo
Ceratitis capitata = assay: Mediterranean fruitfly (Ceratitis capitata) microtiter plate insect diet test; conditions: 120 h, sprayed onto insect diet, 5 days, read-out: mortality in comparison with untreated controls (egg and larval mortality)
Method: For evaluating control of Mediterranean fruitfly (Ceratitis capitata) the test unit consisted of microtiter plates containing an insect diet and 50-80 C. capitata eggs.
The compounds were formulated using a solution containing 75% v/v water and 25% v/v DMSO. Different concentrations of formulated compounds were sprayed onto the insect diet at 5 μl, using a custom built micro atomizer, at two replications.
(§1) After application, microtiter plates were incubated at about 28±1° C. and about 80±5% relative humidity for 5 days. Egg and larval mortality was then visually assessed.

Dichromothrips corbetti = assay: Orchid thrips (Dichromothrips corbetti) floral-immersion test; conditions: dipped orchid flowers, adult thrips, 72 hours after treatment, read-out: mortality in comparison with untreated controls
Method: Dichromothrips corbetti adults used for bioassay were obtained from a colony maintained continuously under laboratory conditions. For testing purposes, the test compound was diluted in a 1:1 mixture of acetone:water (vol:vol), plus 0.01% vol/vol Alkamuls® EL 620 surfactant.
Thrips potency of each compound was evaluated by using a floral-immersion technique. Plastic petri dishes were used as test arenas. All petals of individual, intact orchid flowers were dipped into treatment solution and allowed to dry. Treated flowers were placed into individual petri dishes along with about 20 adult thrips. The petri dishes were then covered with lids. All test arenas were held under continuous light and a temperature of about 28° C. for duration of the assay. After 3 days, the numbers of live thrips were counted on each flower, and along inner walls of each petri dish. The percent mortality was recorded 72 hours after treatment.

Megoura viciae = assay: Vetch aphid (Megoura viciae) broad bean leaf disk test; conditions: foliar, 120 h, sprayed broad bean leaf disks, adult aphids, 5 days, read-out: mortality in comparison with untreated controls
Method: For evaluating control of vetch aphid (Megoura viciae) through contact or systemic means the test unit consisted of 24-well-microtiter plates containing broad bean leaf disks.
The compounds were formulated using a solution containing 75% v/v water and 25% v/v DMSO. Different concentrations of formulated compounds were sprayed onto the leaf disks at 2.5 μl, using a custom built micro atomizer, at two replications.
After application, the leaf disks were air-dried and 5-8 adult aphids placed on the leaf disks inside the microtiter plate wells. The aphids were then allowed to suck on the treated leaf disks and incubated at about 23±1° C. and about 50±5% relative humidity for 5 days. Aphid mortality and fecundity was then visually assessed.

Anthonomus grandis = assay: Boll weevil (Anthonomus grandis) microtiter plate insect diet test; conditions: 120 h, sprayed onto insect diet, 5 days, read-out: mortality in comparison with untreated controls (egg and larval mortality)
Method: For evaluating control of boll weevil (Anthonomus grandis) the test unit consisted of 24-well-microtiter plates containing an insect diet and 20-30 A. grandis eggs.
The compounds were formulated using a solution containing 75% v/v water and 25% v/v DMSO. Different concentrations of formulated compounds were sprayed onto the insect diet at 20 μl, using a custom built micro atomizer, at two replications.
After application, microtiter plates were incubated at about 23±1° C. and about 50±5% relative humidity for 5 days. Egg and larval mortality was then visually assessed.

Myzus persicae = assay: Green peach aphid (Myzus persicae) spray test on bell pepper plants; conditions: 120 h, sprayed infested bell pepper plants, after 5 days, read-out: mortality in comparison with untreated controls
Source text: The active compounds were formulated in cyclohexanone as a 10,000 ppm solution supplied in tubes. The tubes were inserted into an automated electrostatic sprayer equipped with an atomizing nozzle and they served as stock solutions for which lower dilutions were made in 50% acetone:50% water (v/v). A nonionic surfactant (Kinetic®) was included in the solution at a volume of 0.01% (v/v).
Bell pepper plants at the first true-leaf stage were infested prior to treatment by placing heavily infested leaves from the main colony on top of the treatment plants. Aphids were allowed to transfer overnight to accomplish an infestation of 30-50 aphids per plant and the host leaves were removed. The infested plants were then sprayed by an automated electrostatic plant sprayer equipped with an atomizing spray nozzle. The plants were dried in the sprayer fume hood, removed, and then maintained in a growth room under fluorescent lighting in a 24-hr photoperiod at about 25° C. and about 20-40% relative humidity. Aphid mortality on the treated plants, relative to mortality on untreated control plants, was determined after 5 days.

Aphis craccivora = assay: Cowpea aphid (Aphis craccivora) spray test on potted cowpea plants; conditions: sprayed cowpea plants, assessed after 72 hours, read-out: mortality in comparison with untreated controls
Method: The active compound was dissolved at the desired concentration in a mixture of 1:1 (vol:vol) distilled water:acetone. Surfactant (Alkamuls® EL 620) is added at a rate of 0.1% (vol/vol). The test solution was prepared at the day of use.
Potted cowpea plants were colonized with approximately 50-100 aphids of various stages by manually transferring a leaf tissue cut from infested plant 24 hours before application. Plants were sprayed after the pest population has been recorded. Treated plants were maintained on light carts at about 28° C. Percent mortality was assessed after 72 hours.

Heliothis virescens = assay: Tobacco budworm (Heliothis virescens) microtiter plate insect diet test; conditions: 120 h, sprayed onto insect diet, 5 days, read-out: mortality in comparison with untreated controls (egg and larval mortality)
Method: For evaluating control of tobacco budworm (Heliothis virescens) the test unit consisted of 96-well-microtiter plates containing an insect diet and 15-25 H. virescens eggs.
The compounds were formulated using a solution containing 75% v/v water and 25% v/v DMSO. Different concentrations of formulated compounds were sprayed onto the insect diet at 10 μl, using a custom built micro atomizer, at two replications.
as §1

CNC(=O)c1cc(/C=N/OC)cc(C)c1NC(=O)c1cnn(CC(F)(F)F)c1-c1ncccc1Cl [Compound 1-1, 5-(3-chloro-2-pyridyl)-N-[4-[(E)-methoxyiminomethyl]-2-methyl-6-(methylcarbamoyl)phenyl]-1-(2,2,2-trifluoroethyl)pyrazole-4-carboxamide]
> 75%: mortality at 2500 ppm (Ceratitis capitata) | mortality at 500 ppm (Dichromothrips corbetti) | mortality at 2500 ppm (Megoura viciae) | mortality at 2500 ppm (Anthonomus grandis) | mortality at 2500 ppm (Myzus persicae) | mortality at 500 ppm (Aphis craccivora) | mortality at 2500 ppm (Heliothis virescens)

CNC(=O)c1cc(-n2cncn2)cc(C)c1NC(=O)c1cnn(CC(F)(F)F)c1-c1ncccc1Cl [Compound 1-2, 5-(3-chloro-2-pyridyl)-N-[2-methyl-6-(methylcarbamoyl)-4-(1,2,4-triazol-1-yl)phenyl]-1-(2,2,2-trifluoroethyl)pyrazole-4-carboxamide]
> 75%: mortality at 2500 ppm (Ceratitis capitata) | mortality at 500 ppm (Dichromothrips corbetti) | mortality at 2500 ppm (Megoura viciae) | mortality at 2500 ppm (Anthonomus grandis) | mortality at 2500 ppm (Myzus persicae) | mortality at 500 ppm (Aphis craccivora) | mortality at 2500 ppm (Heliothis virescens)
